Laboratory results: ChEMBL document CHEMBL4417633, “Inhibitory polypeptides specific to WNT inhibitors” (2017)
Where a SMILES comes first, the peptide text is derived from it.

Key:
[1] = target: T1, Dickkopf WNT-signaling pathway inhibitor 1 (Rattus norvegicus, UniProt A6I0Z0); test: Inhibition of biotin-labeled rat recombinant DKK1 assessed as reduction in DKK1 interaction with LRP-6/Fc incubated overnight by chemiluminescence based Alpha-screen assay
T1 sequence (A6I0Z0 whole entry): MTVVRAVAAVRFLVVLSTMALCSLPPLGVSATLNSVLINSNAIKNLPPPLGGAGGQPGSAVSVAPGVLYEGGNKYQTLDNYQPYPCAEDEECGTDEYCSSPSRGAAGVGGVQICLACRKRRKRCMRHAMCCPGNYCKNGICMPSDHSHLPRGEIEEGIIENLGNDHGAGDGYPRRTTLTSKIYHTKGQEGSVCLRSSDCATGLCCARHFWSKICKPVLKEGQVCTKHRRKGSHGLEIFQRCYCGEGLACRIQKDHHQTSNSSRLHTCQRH

[2] = target: T2, Dickkopf-related protein 1 (Homo sapiens, UniProt O94907); test: Inhibition of biotin-labeled human recombinant DKK1 assessed as reduction in DKK1 interaction with LRP-6/Fc incubated overnight by chemiluminescence based Alpha-screen assay
T2 sequence (O94907 whole entry): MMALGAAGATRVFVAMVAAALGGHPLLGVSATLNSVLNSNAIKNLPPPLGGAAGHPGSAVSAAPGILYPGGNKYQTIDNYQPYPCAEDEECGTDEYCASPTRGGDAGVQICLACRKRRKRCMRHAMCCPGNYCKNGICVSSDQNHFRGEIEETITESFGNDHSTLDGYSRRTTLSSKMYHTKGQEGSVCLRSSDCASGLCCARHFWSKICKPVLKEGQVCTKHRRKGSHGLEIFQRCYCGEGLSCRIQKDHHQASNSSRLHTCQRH

| SMILES | IC50 [1] | IC50 [2] |
| --- | --- | --- |
| CSCC[C@H](NC(=O)[C@@H]1CCCN1C(=O)[C@H](Cc1ccc(O)cc1)NC(=O)[C@H](CS)NC(=O)[C@H](CO)NC(=O)[C@H](CC(N)=O)NC(=O)[C@H](CC(N)=O)NC(=O)[C@H](CC(N)=O)NC(=O)[C@H](CCCNC(=N)N)NC(=O)[C@H](CS)NC(=O)[C@H](CCC(N)=O)NC(=O)[C@H](Cc1ccccc1)NC(=O)[C@H](Cc1ccc(O)cc1)NC(=O)[C@H](CO)NC(=O)[C@H](C)NC(=O)[C@@H]1CCCN1C(=O)[C@@H](N)CS)C(=O)N[C@@H](CCC(=O)O)C(=O)N[C@@H](Cc1c[nH]c2ccccc12)C(=O)N[C@@H](CCCNC(=N)N)C(=O)N[C@@H](CS)C(=O)N[C@@H](CC(=O)O)C(=O)NCC(=O)N[C@@H](Cc1ccccc1)C(=O)N[C@@H](CCC(=O)O)C(=O)N[C@@H](CC(=O)O)C(=O)N[C@@H](CS)C(=O)N[C@@H](CCC(=O)O)C(=O)N[C@@H](CC(=O)O)C(=O)NCC(=O)N[C@@H](CO)C(=O)N[C@@H](CC(=O)O)C(=O)N[C@@H](CCC(=O)O)C(=O)N[C@@H](CCCNC(=N)N)C(=O)NCC(=O)N[C@@H](CS)C(=O)N1CCC[C@H]1C(=O)N[C@@H](Cc1ccc(O)cc1)C(=O)N[C@@H](CCCNC(=N)N)C(=O)N[C@H](C(=O)O)[C@@H](C)O (H-CPASYFQCRNNNSCYPMEWRCDGFEDCEDGSDERGCPYRT-OH) | ≤ 1 nM | ≤ 1 nM |
| CSCC[C@H](NC(=O)[C@@H]1CCCN1C(=O)[C@H](Cc1ccc(O)cc1)NC(=O)[C@H](CS)NC(=O)[C@H](Cc1cnc[nH]1)NC(=O)[C@@H]1CCCN1C(=O)[C@H](Cc1cnc[nH]1)NC(=O)[C@H](CC(N)=O)NC(=O)[C@H](CCCNC(=N)N)NC(=O)[C@H](CS)NC(=O)[C@H](CCC(N)=O)NC(=O)[C@H](Cc1ccccc1)NC(=O)[C@H](Cc1ccc(O)cc1)NC(=O)[C@H](CO)NC(=O)[C@H](C)NC(=O)[C@@H]1CCCN1C(=O)[C@@H](N)CS)C(=O)N[C@@H](CCC(=O)O)C(=O)N[C@@H](Cc1c[nH]c2ccccc12)C(=O)N[C@@H](CCCNC(=N)N)C(=O)N[C@@H](CS)C(=O)N[C@@H](CC(=O)O)C(=O)NCC(=O)N[C@@H](Cc1ccccc1)C(=O)N1CCC[C@H]1C(=O)N[C@@H](CC(=O)O)C(=O)N[C@@H](CS)C(=O)N[C@H](C(=O)N[C@@H](CC(=O)O)C(=O)NCC(=O)N[C@@H](CO)C(=O)N[C@@H](CC(=O)O)C(=O)N[C@@H](CCC(=O)O)C(=O)N[C@@H](CCCCN)C(=O)NCC(=O)N[C@@H](CS)C(=O)N1CCC[C@H]1C(=O)N[C@@H](Cc1ccc(O)cc1)C(=O)N[C@@H](CCCNC(=N)N)C(=O)N[C@H](C(=O)O)[C@@H](C)O)C(C)C (H-CPASYFQCRNHPHCYPMEWRCDGFPDCVDGSDEKGCPYRT-OH) | ≤ 1 nM | ≤ 1 nM |
| CSCC[C@H](NC(=O)[C@@H]1CCCN1C(=O)[C@H](Cc1ccc(O)cc1)NC(=O)[C@H](CS)NC(=O)[C@H](Cc1cnc[nH]1)NC(=O)[C@H](CC(N)=O)NC(=O)[C@H](Cc1ccc(O)cc1)NC(=O)[C@H](CC(N)=O)NC(=O)CNC(=O)[C@H](CS)NC(=O)[C@H](CCC(N)=O)NC(=O)[C@H](Cc1ccccc1)NC(=O)[C@H](Cc1ccc(O)cc1)NC(=O)[C@H](CO)NC(=O)[C@H](C)NC(=O)[C@@H]1CCCN1C(=O)[C@@H](N)CS)C(=O)N[C@@H](CCC(=O)O)C(=O)N[C@@H](Cc1c[nH]c2ccccc12)C(=O)N[C@@H](CCCNC(=N)N)C(=O)N[C@@H](CS)C(=O)N[C@@H](CC(=O)O)C(=O)NCC(=O)N[C@@H](Cc1ccccc1)C(=O)N[C@@H](CC(C)C)C(=O)N[C@@H](CC(=O)O)C(=O)N[C@@H](CS)C(=O)N[C@H](C(=O)N[C@@H](CC(=O)O)C(=O)NCC(=O)N[C@@H](CO)C(=O)N[C@@H](CC(=O)O)C(=O)N[C@@H](CCC(=O)O)C(=O)N[C@@H](CCCCN)C(=O)NCC(=O)N[C@@H](CS)C(=O)N1CCC[C@H]1C(=O)N[C@@H](Cc1ccc(O)cc1)C(=O)N[C@@H](CCCNC(=N)N)C(=O)N[C@H](C(=O)O)[C@@H](C)O)C(C)C (H-CPASYFQCGNYNHCYPMEWRCDGFLDCVDGSDEKGCPYRT-OH) | ≤ 1 nM | ≤ 1 nM |
| CC[C@H](C)[C@H](NC(=O)[C@H](CCCNC(=N)N)NC(=O)[C@H](CS)NC(=O)[C@H](CCC(N)=O)NC(=O)[C@H](Cc1ccccc1)NC(=O)[C@H](Cc1ccc(O)cc1)NC(=O)[C@H](CO)NC(=O)[C@@H](NC(=O)[C@@H]1CCCN1C(=O)[C@@H](N)CS)C(C)C)C(=O)N[C@@H](Cc1ccc(O)cc1)C(=O)N[C@@H](CC(N)=O)C(=O)N[C@@H](Cc1cnc[nH]1)C(=O)N[C@@H](CS)C(=O)N[C@@H](Cc1ccc(O)cc1)C(=O)N1CCC[C@H]1C(=O)N[C@@H](CCSC)C(=O)N[C@@H](CCC(=O)O)C(=O)N[C@@H](Cc1c[nH]c2ccccc12)C(=O)N[C@@H](CCCNC(=N)N)C(=O)N[C@@H](CS)C(=O)N[C@@H](CC(=O)O)C(=O)NCC(=O)N[C@@H](Cc1ccccc1)C(=O)N[C@@H](CCC(=O)O)C(=O)N[C@@H](CC(=O)O)C(=O)N[C@@H](CS)C(=O)N[C@H](C(=O)N[C@@H](CC(=O)O)C(=O)NCC(=O)N[C@@H](CO)C(=O)N[C@@H](CC(=O)O)C(=O)N[C@@H](CCC(=O)O)C(=O)N[C@@H](CCCCN)C(=O)NCC(=O)N[C@@H](CS)C(=O)N1CCC[C@H]1C(=O)N[C@@H](Cc1ccc(O)cc1)C(=O)N[C@@H](CCCNC(=N)N)C(=O)N[C@H](C(=O)O)[C@@H](C)O)C(C)C (H-CPVSYFQCRIYNHCYPMEWRCDGFEDCVDGSDEKGCPYRT-OH) | ≤ 1 nM | ≤ 1 nM |
| CSCC[C@H](NC(=O)[C@H](Cc1ccccc1)NC(=O)[C@H](CCC(=O)O)NC(=O)[C@H](Cc1ccc(O)cc1)NC(=O)[C@H](CO)NC(=O)[C@@H]1CCCN1C(=O)[C@@H](N)CS)C(=O)N[C@@H](CS)C(=O)N[C@@H](C)C(=O)N[C@@H](CC(=O)O)C(=O)N[C@@H](CCCCN)C(=O)N[C@@H](CCSC)C(=O)N[C@@H](CS)C(=O)N[C@@H](Cc1ccccc1)C(=O)N1CCC[C@H]1C(=O)N[C@@H](CC(C)C)C(=O)N[C@@H](CC(=O)O)C(=O)N[C@@H](Cc1ccccc1)C(=O)N[C@@H](CC(C)C)C(=O)N[C@@H](CS)C(=O)N[C@@H](CC(=O)O)C(=O)NCC(=O)N[C@@H](CCC(=O)O)C(=O)N[C@@H](CC(N)=O)C(=O)N[C@@H](CC(=O)O)C(=O)N[C@@H](CS)C(=O)N[C@@H](CCC(=O)O)C(=O)N[C@@H](CC(=O)O)C(=O)NCC(=O)N[C@@H](CO)C(=O)N[C@@H](CC(=O)O)C(=O)N[C@@H](CCC(=O)O)C(=O)N[C@@H](CC(=O)O)C(=O)N[C@@H](Cc1ccc(O)cc1)C(=O)N[C@@H](CS)C(=O)N1CCC[C@H]1C(=O)N[C@@H](CO)C(=O)N[C@@H](CCCNC(=N)N)C(=O)N[C@H](C(=O)O)[C@@H](C)O (H-CPSYEFMCADKMCFPLDFLCDGENDCEDGSDEDYCPSRT-OH) | ≤ 1 nM | ≤ 1 nM |
| CSCC[C@H](NC(=O)[C@@H]1CCCN1C(=O)[C@H](Cc1ccc(O)cc1)NC(=O)[C@H](CS)NC(=O)[C@H](Cc1cnc[nH]1)NC(=O)[C@H](CC(N)=O)NC(=O)[C@H](Cc1cnc[nH]1)NC(=O)[C@H](Cc1ccc(O)cc1)NC(=O)[C@H](CCCNC(=N)N)NC(=O)[C@H](CS)NC(=O)[C@H](CCC(N)=O)NC(=O)[C@H](Cc1ccccc1)NC(=O)[C@H](Cc1ccc(O)cc1)NC(=O)[C@H](CO)NC(=O)[C@@H](NC(=O)[C@@H]1CCCN1C(=O)[C@@H](N)CS)C(C)C)C(=O)N[C@@H](CCC(=O)O)C(=O)N[C@@H](Cc1c[nH]c2ccccc12)C(=O)N[C@@H](CCCNC(=N)N)C(=O)N[C@@H](CS)C(=O)N[C@@H](CC(=O)O)C(=O)NCC(=O)N[C@@H](Cc1ccccc1)C(=O)N1CCC[C@H]1C(=O)N[C@@H](CC(=O)O)C(=O)N[C@@H](CS)C(=O)N[C@@H](CCC(=O)O)C(=O)N[C@@H](CC(=O)O)C(=O)N[C@@H](C)C(=O)N[C@@H](CO)C(=O)N[C@@H](CC(=O)O)C(=O)N[C@@H](CCC(=O)O)C(=O)N[C@@H](CCC(=O)O)C(=O)NCC(=O)N[C@@H](CS)C(=O)N1CCC[C@H]1C(=O)N[C@@H](Cc1ccc(O)cc1)C(=O)N[C@@H](CCCNC(=N)N)C(=O)N[C@H](C(=O)O)[C@@H](C)O (H-CPVSYFQCRYHNHCYPMEWRCDGFPDCEDASDEEGCPYRT-OH) | ≤ 1 nM | ≤ 1 nM |
| CSCC[C@H](NC(=O)[C@@H]1CCCN1C(=O)[C@H](Cc1ccc(O)cc1)NC(=O)[C@H](CS)NC(=O)[C@H](Cc1cnc[nH]1)NC(=O)[C@H](CC(N)=O)NC(=O)[C@H](CCCNC(=N)N)NC(=O)[C@H](Cc1cnc[nH]1)NC(=O)[C@H](CCCNC(=N)N)NC(=O)[C@H](CS)NC(=O)[C@H](CCCCN)NC(=O)[C@H](Cc1ccccc1)NC(=O)[C@H](Cc1ccc(O)cc1)NC(=O)[C@H](CO)NC(=O)[C@@H](NC(=O)[C@@H]1CCCN1C(=O)[C@@H](N)CS)C(C)C)C(=O)N[C@@H](CCC(=O)O)C(=O)N[C@@H](Cc1c[nH]c2ccccc12)C(=O)N[C@@H](CCCNC(=N)N)C(=O)N[C@@H](CS)C(=O)N[C@@H](CC(=O)O)C(=O)NCC(=O)N[C@@H](Cc1ccccc1)C(=O)N1CCC[C@H]1C(=O)N[C@@H](CC(=O)O)C(=O)N[C@@H](CS)C(=O)N[C@@H](CC(=O)O)C(=O)N[C@@H](CC(=O)O)C(=O)NCC(=O)N[C@@H](CO)C(=O)N[C@@H](CC(=O)O)C(=O)N[C@@H](CCC(=O)O)C(=O)N[C@@H](CCCNC(=N)N)C(=O)NCC(=O)N[C@@H](CS)C(=O)N1CCC[C@H]1C(=O)N[C@@H](Cc1ccc(O)cc1)C(=O)N[C@@H](CCCNC(=N)N)C(=O)N[C@H](C(=O)O)[C@@H](C)O (H-CPVSYFKCRHRNHCYPMEWRCDGFPDCDDGSDERGCPYRT-OH) | ≤ 1 nM | ≤ 1 nM |
